Data as given in the supplement of paper PMC10307832.

What was measured:
Test in all cases: relative viability (nuclei count vs DMSO), 5 days (fraction); higher = more cells survive
[1] = compound: CC1=C(C(=NN1)C)CC2=C(C3=C(S2)N(C(=O)N(C3=O)C)CC(C)C)C(=O)N4C[C@@H](CO4)O + COc1cc2c(Oc3ccc(NC(=O)C4(C(=O)Nc5ccc(F)cc5)CC4)cc3F)ccnc2cc1OCCCN1CCOCC1 [Foretinib] (partner 0.25 µM)
Method in brief: (§1)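 Medians of duplicate plates are given as relative viability. That measure is the nuclei count in treated wells divided by the count in vehicle wells. Counts were taken on 4× images of lung cancer cell lines in 1536-well plates, 5 days after pin-tool dosing the day after seeding with one drug alone or a fixed anchor-drug dose plus five library-drug doses (not always all listed) in √10 steps.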

IDH-C35 + Tozasertib = compound: Cc1ccccc1C(C(=O)NC1CCCCC1)N(C(=O)Cn1ccnc1C)c1cccc(F)c1 [IDH-C35] + Cc1cc(Nc2cc(N3CCN(C)CC3)nc(Sc3ccc(NC(=O)C4CC4)cc3)n2)n[nH]1 [Tozasertib] (partner 0.1 µM)
Method in brief: as §1

IDH-C35 + Olaparib = compound: Cc1ccccc1C(C(=O)NC1CCCCC1)N(C(=O)Cn1ccnc1C)c1cccc(F)c1 [IDH-C35] + O=C(c1cc(Cc2n[nH]c(=O)c3ccccc23)ccc1F)N1CCN(C(=O)C2CC2)CC1 [Olaparib] (partner 8 µM)
Method in brief: as §1

[2] = compound: CC1=C(C(=NN1)C)CC2=C(C3=C(S2)N(C(=O)N(C3=O)C)CC(C)C)C(=O)N4C[C@@H](CO4)O + CS(=O)(=O)N1CCN(Cc2cc3nc(-c4cccc5[nH]ncc45)nc(N4CCOCC4)c3s2)CC1 [Pictilisib] (partner 1 µM)
Method in brief: as §1

| Cell Line | relative viability ([1]; first compound 0.0025 µM) | relative viability ([1]; first compound 0.007906 µM) | relative viability ([1]; first compound 0.025 µM) | relative viability ([1]; first compound 0.07906 µM) | relative viability ([1]; first compound 0.25 µM) | relative viability (IDH-C35 + Tozasertib; first compound 0.08 µM) | relative viability (IDH-C35 + Tozasertib; first compound 0.253 µM) | relative viability (IDH-C35 + Tozasertib; first compound 0.8 µM) | relative viability (IDH-C35 + Tozasertib; first compound 2.53 µM) | relative viability (IDH-C35 + Tozasertib; first compound 8 µM) | relative viability (IDH-C35 + Olaparib; first compound 0.08 µM) | relative viability (IDH-C35 + Olaparib; first compound 0.253 µM) | relative viability (IDH-C35 + Olaparib; first compound 0.8 µM) | relative viability (IDH-C35 + Olaparib; first compound 2.53 µM) | relative viability (IDH-C35 + Olaparib; first compound 8 µM) | relative viability ([2]; first compound 0.0025 µM) | relative viability ([2]; first compound 0.007906 µM) | relative viability ([2]; first compound 0.025 µM) | relative viability ([2]; first compound 0.07906 µM) | relative viability ([2]; first compound 0.25 µM) |
| --- | --- | --- | --- | --- | --- | --- | --- | --- | --- | --- | --- | --- | --- | --- | --- | --- | --- | --- | --- | --- |
| NCI-H2342 | 1.14 | 1.04 | 0.893 | 0.998 | 1.01 | 0.482 | 0.54 | 0.483 | 0.494 | 0.442 | 0.435 | 0.49 | 0.41 | 0.467 | 0.377 | – | – | – | – | – |
| SK-MES-1 | 0.901 | 1.06 | 1.02 | 0.954 | 0.991 | 0.927 | 0.86 | 0.88 | 0.863 | 0.761 | 0.737 | 0.728 | 0.609 | 0.693 | 0.631 | 0.385 | 0.421 | 0.369 | 0.398 | 0.432 |
| HCC-366 | 0.918 | 0.932 | 0.905 | 0.771 | 0.958 | 0.109 | 0.128 | 0.179 | – | 0.0826 | 0.353 | 0.361 | 0.345 | 0.36 | 0.326 | 0.139 | 0.141 | 0.25 | 0.193 | 0.212 |
| 201T | 1.18 | 1.16 | 1.02 | 1.11 | 1.2 | 0.927 | 0.914 | 0.893 | 0.928 | 0.828 | 0.762 | 0.824 | 0.799 | 0.81 | 0.841 | 0.708 | 0.704 | 0.688 | 0.653 | 0.679 |
| HCC-827 | 1.02 | 1.09 | 1.01 | 1.02 | 1.02 | 0.4 | 0.394 | 0.388 | 0.428 | 0.433 | 0.545 | 0.608 | 0.614 | 0.708 | 0.658 | 1.24 | 1.04 | 0.896 | 0.863 | 1.06 |
| NCI-H647 | 1.23 | 1.27 | 1.13 | 1.19 | 1.2 | 0.29 | 0.244 | 0.21 | 0.261 | 0.284 | 0.453 | 0.516 | 0.435 | 0.586 | 0.508 | 0.494 | 0.444 | – | 0.525 | 0.483 |
| NCI-H2023 | 0.871 | 0.809 | 0.959 | 0.898 | 1.03 | 0.352 | 0.343 | 0.355 | 0.297 | 0.248 | 0.513 | 0.455 | 0.503 | 0.474 | 0.446 | 0.308 | 0.288 | 0.276 | 0.23 | 0.236 |
| NCI-H520 | 0.894 | 0.73 | 0.701 | 0.564 | 0.692 | 0.327 | 0.427 | 0.54 | 0.405 | 0.409 | 0.309 | 0.284 | 0.313 | 0.308 | 0.351 | 0.32 | 0.259 | 0.304 | 0.269 | 0.288 |
